From patent US20050233984A1, “Composition for preventing or treating degenerative brain diseases comprising a hydrolysate of ginsenosides” (Digital Biotech Co., Ltd., priority 2002, published 2005)

What was measured:
[1] = system: neuroblastoma B103 cell line; experiment: MTT test: preventing the toxicity of beta-amyloid; type: cell-based; conditions: for Survival rate (%): B103 cells, beta-amyloid-only control = 100%
Procedure: In order to examine the activities of the compounds prepared in the Reference Example in preventing the toxicity of beta-amyloid, the MTT analysis (Gillardon, F. et al., Brain Research. No. 6: pp. 169-172 (1996)) was carried out as follows.
5×10^3 cells of neuroblastoma B103 cell line (donated by Dr. David Schubert of the Salk Institute, USA) were placed in each well of a 96-well plate with 100 μl of DMEM (Dulbecco's Minimal Eagle's Medium) containing 10% fetal bovine serum (FBS), and cultured at 37° C. under 8% CO2 for 1 day. […] The cells were cultured at 37° C. for 18 hours, treated with 15 μl of MTT solution [10 mg/ml solution of 3-(4,5-dimethyl-2-thiazolyl)-2,5-diphenyl-2H-tetrazolium bromide in phosphate buffered saline (PBS)], and allowed to react at 37° C. for 3 to 4 hours. 100 μl of lysis buffer (10% SDS, 50% dimethylformamide, pH 4.7) was added to the wells, and the cells were cultured overnight at room temperature and relative humidity of 90%. Optical density (OD) of each well was measured at […] and 630 nm, respectively, using a scanning multiwell spectrophotometer, and then the OD value at 630 nm was subtracted from that at 570 nm.
Setting the survival rate of the control group treated only with beta-amyloid as 100%, relative survival rates of the experimental groups treated with compound Y, ginsenosides Mc and Rc, PPD and PPT, respectively, were calculated, and the results are shown in Table 2 and FIG. 1. The obtained values were statistically significant.
When the same procedure as above was repeated except that the cells were treated simultaneously with the test compound and beta-amyloid, or treated with the test compound one hour after the beta-amyloid treatment, the results were almost the same as above.
Further, in order to assess the concentration-dependent activity of a test compound, the above procedure was repeated using PPT at concentrations ranging from […].

beta-secretase = biological target: T1, beta-secretase (Rattus norvegicus, UniProt P56819); experiment: β-secretase inhibitory activity, fluorometric, B103 cell extract; type: biochemical
T1 construct: the cells were lysed up with MEST buffer; endogenous in cells; host or cells: B103 neuroblastoma cell extract (Triton X-100 lysate)
T1 sequence (P56819 46-501): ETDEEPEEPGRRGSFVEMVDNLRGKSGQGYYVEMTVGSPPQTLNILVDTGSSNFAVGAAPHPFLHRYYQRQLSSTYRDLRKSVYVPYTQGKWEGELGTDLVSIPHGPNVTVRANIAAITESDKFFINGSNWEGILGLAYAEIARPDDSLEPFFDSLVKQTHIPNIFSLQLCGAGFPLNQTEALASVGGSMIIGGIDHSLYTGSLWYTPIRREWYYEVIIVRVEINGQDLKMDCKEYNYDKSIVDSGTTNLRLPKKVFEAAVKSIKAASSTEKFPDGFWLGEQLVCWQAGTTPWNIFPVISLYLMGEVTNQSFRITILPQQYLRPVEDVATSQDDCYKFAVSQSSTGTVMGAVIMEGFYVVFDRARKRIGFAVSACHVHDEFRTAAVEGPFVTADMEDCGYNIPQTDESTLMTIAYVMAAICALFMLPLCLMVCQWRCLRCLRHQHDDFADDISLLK
Procedure: Peptide H4848 (Bachem), a known suppressor of beta-secretase, was used for a comparative agent and PPT was used as a test compound.
1.5×10^6 cells of neuroblastoma B103 cell line secreting APP were plated on a 100 mm dish with DMEM medium containing 10% FBS, and cultured overnight. Then, the cells were lysed up with MEST buffer (20 mM MES, 0.15 M NaCl, 0.5% Triton X-100, pH 6.0 (Bachem)) to obtain a cell extract.
[…] sodium acetate buffer (pH 4.5), distilled water, beta-secretase inhibitor, 5 μM M2465 (Bachem) as a substrate for beta-secretase and MEST buffer were mixed in order, in amounts as shown in Table 5.
The resulting mixtures were reacted at […] for 2 hours, and then read by a fluorometer with 360 nm excitation and 508 nm emission wavelengths. Enzyme inhibitory activity was determined based on the enzyme activity of the control.

[2] = test compound 1 μM + 25 μM beta-amyloid (25-35), 18 hours
[3] = test compound 1 μM alone, without beta-amyloid

SMILES | Survival rate (%) [1, 2] | Survival rate (%) [1, 3] | Enzyme Inhibition (% of control) (beta-secretase; 100 nM PPT) | Enzyme Inhibition (% of control) (beta-secretase; 1 μM PPT) | Enzyme Inhibition (% of control) (beta-secretase; 10 μM PPT) | Enzyme Inhibition (% of control) (beta-secretase; 100 μM PPT) | beta-secretase inhibitory activity versus comparative group (in words) (beta-secretase; comparative group: H4848 100 nM) | concentration-dependent inhibitory activity against beta-amyloid toxicity (in words) ([1]; FIG. 2, PPT concentration series) | Survival rate (%) ([1]; test compound 10 μM + 25 μM beta-amyloid (25-35), 18 hours) | Survival rate (%) ([1]; test compound 10 μM alone, without beta-amyloid)
CC(C)=CCCC(C)(O)[C@H]1CC[C@]2(C)[C@@H]1[C@H](O)C[C@@H]1[C@@]3(C)CC[C@H](O)C(C)(C)[C@@H]3CC[C@]12C (stereo in doubt) [PPD, protopanaxadiol] | 106.7 ± 6.9% | 137.7 ± 4.8% | – | – | – | – | – | – | – | –
CC(C)=CCC[C@](C)(O)[C@H]1CC[C@]2(C)[C@@H]1[C@H](O)C[C@@H]1[C@@]3(C)CC[C@H](O)C(C)(C)[C@@H]3[C@@H](O)C[C@]12C [PPT, protopanaxatriol] | 106.6 ± 1.2% | 157.4 ± 3.3% | 0 % of control | 0.6 % of control | 3.31 % of control | 18.1 % of control | as good as the comparative group | began to show its inhibitory activity at the μM level | 119.7 ± 8.5% | 140.3 ± 6.4%
